According to patent publication US11820984B2, “Double-helix oligonucleotide construct comprising double-stranded miRNA and use thereof” (BIONEER CORPORATION, priority 2018, dated 2023):

Experiments:
[1] = system: PC9/GR, PC9/ER, H1975, H596 and H1650 cell lines having resistance to erlotinib; assay: relative cell viability (CellTiter-Glo), erlotinib-resistant lines; type: cell-based; conditions: cell lines having resistance to erlotinib (EGFR T790M etc.), 96 hours
Protocol: (§1) After 96 hours of additional culture, the relative viability of the cells was measured. […] On the other hand, PC9/GR and PC9/ER contain delE764-A750 mutation, like PC9, and have T790M mutation. […] H1975 has L858R and T790M mutations, H596 has overexpressed EGFR, and H1650 has delE764-A750 mutation. […] The cell viability was measured using the CellTiter-Glo used in Example 1.

PC9 cell line = assay: relative cell viability (CellTiter-Glo), erlotinib-sensitive line; type: cell-based; conditions: PC9, 96 hours
Protocol: as §1, with “measured. These cell lines were used because they have genetic characteristics and drug resistance as follows.” for “measured.”

3′ UTR of EGFR mRNA = assay: luciferase assay with EGFR 3′ UTR firefly luciferase vector in HEK cells; type: cell-based, human
Description: Since miRNA inhibits protein production from target mRNA by binding to the 3′ UTR (untranslated region) of the target mRNA, luciferase assay is generally used as a method of directly measuring the relationship between miRNA and the target mRNA. Using the TargetScan software, a 3′ UTR sequence comprising a miRNA binding sequence was predicted. The predicted 3′ UTR sequence was cloned into the 3′ UTR of firefly luciferase by a gene cloning technique. The constructed vector and the miRNA of interest were co-transfected into human embryonic kidney (HEK) cells, and the luciferase expression level of the vector was measured. […] At this time, in order to correct the transfection efficiency, Renilla luciferase was also transfected to correct the measurement value. After co-transfection of the miRNA, firefly luciferase and Renilla luciferase, the cells were cultured for 48 hours, and then the luciferase activity was measured using a luminometer.

EGFR mRNA = assay: RT-qPCR relative expression level of EGFR mRNA; type: cell-based; conditions: PC9, PC9/ER, H1975 and H596, versus negative control
[2] = system: lung cancer cell lines H2009, H596, H1650, PC9, PC9/GR, H1975, HCC827, and A549; assay: miRNA library screening, inhibition of proliferation (CellTiter-Glo); type: cell-based; conditions: 40 nM miRNA with RNAiMax, 96 hours, eight lung cancer cell lines
Protocol: Using the same miRNA library used in Korean Patent Application No. 10-2016-0022462, an experiment was performed to screen miRNAs that induce apoptosis of lung cancer cell lines. The lung cancer cell lines used in the experiment are as follows: H2009, H596, H1650, PC9, PC9/GR, H1975, HCC827, and A549 (purchased from the ATCC or the Korean Cell Line Bank). Each of the cell lines was seeded into a 96-well plate and treated with 40 nM of each miRNA together with the transfection reagent RNAiMax (Invitrogen), and the miRNA was delivered into the cells. After 96 hours of additional culture, the relative growth of the cells was measured using CellTiter-Glo reagent (Promega) (FIGS. 1 to 4).

[3] = system: proteins involved in the EGFR signaling pathway; assay: Western blot analysis of proteins involved in the EGFR signaling pathway; type: cell-based
Description: It is known that the EGFR signaling pathway in the lung cancer cell lines used in the Examples is activated due to the presence of mutation in the EGFR protein and activation of the EGFR signaling pathway plays an important role in the survival of the cell lines.

[4] = system: PC9 and PC9/ER cell lines; assay: apoptosis analysis by annexin V / propidium iodide flow cytometry (FACS); type: cell-based; conditions: RNAiMax transfection, 48 hours, versus miRNA control
Protocol: After 48 hours of additional culture, the cells were treated with FITC fluorescent dye-labeled annexin V and propidium iodide (PI) and analyzed by flow cytometry (FACS).

[5] = Western blot, versus control group

C#Cc1cccc(Nc2ncnc3cc(OCCOC)c(OCCOC)cc23)c1 [erlotinib]
concentration at which apoptosis of the cells could be induced [1]: 10 µM | concentration at which cells could be killed (PC9 cell line): 0.1 µM

miR-544a: double-stranded miRNA consisting of SEQ ID NO: 1 (5'-AUUCUGCAUUUUUAGCAAGUUC-3') and SEQ ID NO: 2 (5'-ACUUGCUAAAAAUGCAGAAUUU-3') (listed as RNA, chemistry not given here)
luciferase activity, EGFR 3′UTR vector (3′ UTR of EGFR mRNA; HEK cells, co-transfection, 48 hours, Renilla-corrected): each target mRNA was controlled directly by the miRNA | luciferase activity, EGFR 3′UTR with mutations in target regions (3′ UTR of EGFR mRNA; mutations EGFR 3′UTR 250-256, 2288-2295, and 3476-3482 nt): the expression inhibition phenomenon by the miRNA disappeared | expression of EGFR mRNA (EGFR mRNA): decreased in all the cell lines used in the experiment | inhibition of cell proliferation (relative growth of the cells) [2]: excellent effect against the cell lines used | inhibition of pEGFR and ERK phosphorylation, apoptosis (PARP) by Western blot ([3]; PC9 cell line): inhibit activated EGFR (pEGFR) and inhibit phosphorylation of the downstream signaling factor ERK | amount of ERK, an activated form of the ERK protein ([3]; Western blot): decreased | expression level of phosphorylated EGFR [3, 5]: also decreased compared to that in the control group | expression level of the EGFR protein [3, 5]: significantly decreased compared to that in the control group | inhibition of pEGFR and ERK phosphorylation, apoptosis (PARP) by Western blot ([3]; other cell lines having erlotinib resistance due to EGFR T790M mutation): only miR-544a exhibits this effect | number of dead cells (annexin V/PI) [4]: significantly higher than that in the cell line treated with the miRNA control
